Experimental data taken from US9617256B2 (priority 2007, dated 2017).
In brackets after ≈: the same amount, converted by molar mass.

How the values were obtained:
[1] = system: AECO063 (ATCC25922 bearing an acrAB mutation); assay: microbe, parasite or virus in culture; format: cell-based, E. coli; settings: for MIC AECO063: ATCC25922 bearing an acrAB mutation; for MIC: Escherichia coli, ATCC25922, read-out: MIC AECO063
Method in brief: (§1)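 Incubation: 35° C., ambient air, 18-24 h. Medium: cation-adjusted Mueller-Hinton broth with 2-fold serial dilutions of drug. Inoculum: 3×10^5–7×10^5 CFU/mL final, per CLSI microdilution method.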

APAE001 (ATCC27853) = assay: MIC broth microdilution, APAE001; format: cell-based, P. aeruginosa; settings: for MIC APAE001: APAE001 is ATCC27853; for MIC: Pseudomonas aeruginosa, ATCC27853, read-out: MIC APAE001, APAE001 is ATCC27853
Method in brief: as §1

AECO001 (ATCC25922) = assay: MIC broth microdilution, AECO001; format: cell-based, E. coli; settings: for MIC AECO001: AECO001 is ATCC25922; for MIC: Escherichia coli, ATCC25922, read-out: MIC AECO001
Method in brief: as §1

[2] = system: APAE006 (strain of P. aeruginosa in which all efflux pumps are inactivated); assay: microbe, parasite or virus in culture; format: cell-based; settings: for MIC APAE006: P. aeruginosa, all efflux pumps inactivated; for MIC: Pseudomonas aeruginosa, read-out: MIC APAE006, P. aeruginosa, all efflux pumps inactivated
Method in brief: (§2)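 Broth microdilution (CLSI); CA-MHB; 3×10^5–7×10^5 CFU/mL final; 2-fold dilutions; 35° C., ambient air, 18-24 h. APAE006 lacks all active efflux pumps.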

[3] = system: ASAU001 (laboratory strain of S. aureus, ATCC29213); assay: MIC broth microdilution, ASAU001; format: cell-based; settings: for MIC ASAU001: S. aureus ATCC29213; for MIC: Staphylococcus aureus, ATCC29213, read-out: MIC ASAU001
Method in brief: as §1

AECO001 HSA AGP = assay: MIC broth microdilution, AECO001 HSA AGP; format: cell-based, E. coli; settings: for MIC: Escherichia coli
Description: Bacterial isolates were cultivated from −70° C. frozen stocks by overnight passages at 35° C. in ambient air on Mueller-Hinton agar (Beckton Dickinson, Franklin Lakes, N.J.). Clinical isolates tested were obtained from various geographically diverse hospitals in the US and abroad (Focus Diagnostics, Herndon, Va. and JMI, North Liberty, Iowa). Quality control strains were from the American Type Culture Collection (ATCC; Rockville, Md.). Additional primary panel strains were generated using standard molecular biology techniques.
Minimum Inhibitory Concentrations (MICs) were determined by the broth microdilution method in accordance with the Clinical and Laboratory Standards Institute (CLSI) guidelines. In brief, organism suspensions were adjusted to a 0.5 McFarland standard to yield a final inoculum between 3×10^5 and 7×10^5 colony-forming units (CFU)/mL. Drug dilutions and inocula were made in sterile, cation adjusted Mueller-Hinton Broth (Beckton Dickinson). An inoculum volume of 100 μL was added to wells containing 100 μL of broth with 2-fold serial dilutions of drug. All inoculated microdilution trays were incubated in ambient air at 35° C. for 18-24 hours. […] Performance of the assay was monitored by the use of laboratory quality-control strains and levofloxacin, a compound with a defined MIC spectrum, in accordance with CLSI guidelines.
*AECO001 is ATCC25922, AECO063 is ATCC25922 bearing an acrAB mutation, APAE001 is ATCC27853, APAE006 is a strain of P. aeruginosa in which all efflux pumps are inactivated, APAE006+PMBN indicates MICs with the indicated strain in the presence of 8 micrograms per milliliter of polymyxin B nonapeptide, AABA1060 is a clinical isolate of Acinetobacter baumannii, ASAU001 is a laboratory strain of S. aureus (ATCC29213).

[4] = system: APAE006 in the presence of 8 micrograms per milliliter of polymyxin B nonapeptide; format: cell-based, P. aeruginosa; settings: in the presence of 8 micrograms per milliliter of polymyxin B nonapeptide
Method in brief: as §2

[5] = system: AABA1060 (clinical isolate of Acinetobacter baumannii); assay: MIC broth microdilution, AABA1060; format: cell-based; settings: for MIC AABA1060: clinical isolate of Acinetobacter baumannii; for MIC: Acinetobacter baumannii, read-out: MIC AABA1060
Method in brief: as §1

Compound | MIC AECO063 [1] | MIC APAE001 (APAE001 (ATCC27853)) | MIC AECO001 (AECO001 (ATCC25922)) | MIC APAE006 [2] | MIC ASAU001 [3] | MIC AECO001 HSA AGP (AECO001 HSA AGP) | MIC APAE006 + PMBN [4] | MIC AABA1060 [5] | MIC [1] [µg/mL] | MIC (APAE001 (ATCC27853)) [µg/mL] | MIC (AECO001 (ATCC25922)) [µg/mL] | MIC [2] [µg/mL] | MIC [3] [µg/mL] | MIC (AECO001 HSA AGP) [µg/mL] | MIC [5] [µg/mL]
3-Amino-N-hydroxy-3-methyl-2-[3-(4-morpholin-4-ylmethyl-phenyl)-propynoylamino]-butyramide [Example 129-1] | A (MIC's of 2.0 μg/mL or less = A) | A (MIC's of 2.0 μg/mL or less = A) | A (MIC's of 2.0 μg/mL or less = A) | A (MIC's of 2.0 μg/mL or less = A) | D (MIC's of greater than 64.0 μg/mL = D) | B (MIC's of greater than 2.0 μg/mL to 16.0 μg/mL = B) | A (MIC's of 2.0 μg/mL or less = A) | B (MIC's of greater than 2.0 μg/mL to 16.0 μg/mL = B) |  |  |  |  |  |  | 
CC(C)(O)[C@H](NC(=O)c1ccc(C#C/C=C/c2ccc(CN3CCOCC3)cc2)cc1)C(=O)NO [Compound 97-2] |  |  |  |  |  |  | A (MIC's of 2.0 μg/mL or less = A) |  | < 2 | < 2 | < 2 | < 2 | 16 to 64 (≈ 33.5 to 134 µM) | < 2 | < 2
C[C@@H](O)[C@H](NC(=O)c1ccc(/C=C/C#Cc2ccc(CN3CCOCC3)cc2)cc1)C(=O)NO [Example 30-12a] |  |  |  |  |  |  | A (MIC's of 2.0 μg/mL or less = A) |  | < 2 | < 2 | < 2 | < 2 | > 64 | < 2 | 2 to 16 (≈ 4.31 to 34.5 µM)
C[C@@H](O)[C@H](NC(=O)c1ccc(/C=C\C#Cc2ccc(CN3CCOCC3)cc2)cc1)C(=O)NO [Example 30-12b] |  |  |  |  |  |  | A (MIC's of 2.0 μg/mL or less = A) |  | < 2 | 2 to 16 (≈ 4.31 to 34.5 µM) | 2 to 16 (≈ 4.31 to 34.5 µM) | < 2 | > 64 | 16 to 64 (≈ 34.5 to 138 µM) | 16 to 64 (≈ 34.5 to 138 µM)
C[C@@H](O)[C@H](NC(=O)c1ccc(C2CCN(c3ccc(CN4CCOCC4)cc3)CC2)cc1)C(=O)NO [Example 41-5, N-((1S,2R)-2-Hydroxy-1-hydroxycarbamoyl-propyl)-4-[1-(4-morpholin-4-ylmethyl-phenyl)-piperidin-4-yl]-benzamide] |  |  |  |  |  |  | A (MIC's of 2.0 μg/mL or less = A) |  | 16 to 64 (≈ 32.2 to 129 µM) | 16 to 64 (≈ 32.2 to 129 µM) | > 64 | < 2 | > 64 | > 64 | > 64
C[C@@H](O)[C@H](NC(=O)c1ccc(N2CCC(c3ccc(CN4CCOCC4)cc3)CC2)cc1)C(=O)NO [Example 42-7, N-((1S,2R)-2-Hydroxy-1-hydroxycarbamoyl-propyl)-4-[4-(4-morpholin-4-ylmethyl-phenyl)-piperidin-1-yl]-benzamide] |  |  |  |  |  |  | A (MIC's of 2.0 μg/mL or less = A) |  | 16 to 64 (≈ 32.2 to 129 µM) | 16 to 64 (≈ 32.2 to 129 µM) | 16 to 64 (≈ 32.2 to 129 µM) | < 2 | > 64 | 16 to 64 (≈ 32.2 to 129 µM) | 16 to 64 (≈ 32.2 to 129 µM)
C[C@@H](O)[C@H](NC(=O)c1ccc(N2CCN(c3ccc(CN4CCOCC4)cc3)CC2)cc1)C(=O)NO [Example 43-7, N-((1S,2R)-2-Hydroxy-1-hydroxycarbamoyl-propyl)-4-[4-(4-morpholin-4-ylmethyl-phenyl)-piperazin-1-yl]-benzamide] |  |  |  |  |  |  | A (MIC's of 2.0 μg/mL or less = A) |  | 16 to 64 (≈ 32.2 to 129 µM) | 16 to 64 (≈ 32.2 to 129 µM) | > 64 | < 2 | > 64 | > 64 | > 64
C[C@@H](O)[C@H](NC(=O)c1ccc(SCc2ccc(CN3CCOCC3)cc2)cc1)C(=O)NO [Example 46-4, N-((1S,2R)-2-Hydroxy-1-hydroxycarbamoyl-propyl)-4-(4-morpholin-4-ylmethyl-benzylsulfanyl)-benzamide] |  |  |  |  |  |  |  |  | 2 to 16 (≈ 4.35 to 34.8 µM) | 16 to 64 (≈ 34.8 to 139 µM) | 16 to 64 (≈ 34.8 to 139 µM) | < 2 | > 64 | 16 to 64 (≈ 34.8 to 139 µM) | > 64
C[C@@H](O)[C@H](NC(=O)c1ccc(Sc2ccc(CN3CCOCC3)cc2)cc1)C(=O)NO [Example 47-5, N-((1S,2R)-2-hydroxy-1-hydroxycarbamoyl-propyl)-4-(4-morpholin-4-ylmethyl-phenylsulfanyl)-benzamide] |  |  |  |  |  |  |  |  | > 64 | > 64 | > 64 | 16 to 64 (≈ 35.9 to 144 µM) | > 64 | > 64 | > 64
C[C@@H](O)[C@H](NC(=O)c1ccc(Cc2ccc(CN3CCOCC3)cc2)cc1)C(=O)NO [Example 48-5, N-((1S,2R)-2-Hydroxy-1-hydroxycarbamoyl-propyl)-4-(4-morpholin-4-ylmethyl-benzyl)-benzamide] |  |  |  |  |  |  |  |  | > 64 | > 64 | > 64 | > 64 | > 64 | > 64 | > 64
CC(C)C(C(=O)NO)C(=O)Nc1ccc(C#Cc2ccc(CN3CCOCC3)cc2)cc1 (stereo not shown) [Example 60-5, N-Hydroxy-2-isopropyl-N′-[4-(4-morpholin-4-ylmethyl-phenylethynyl)-phenyl]-malonamide] |  |  |  |  |  |  | B (MIC's of greater than 2.0 μg/mL to 16.0 μg/mL = B) |  | 16 to 64 (≈ 36.7 to 147 µM) | > 64 | 16 to 64 (≈ 36.7 to 147 µM) | 16 to 64 (≈ 36.7 to 147 µM) | > 64 | > 64 | > 64
CC(O)[C@H](NS(=O)(=O)c1ccc(C#Cc2ccc(CN3CCOCC3)cc2)cc1)C(=O)NO (stereo partly shown) [Example 62-7] |  |  |  |  |  |  |  |  | 2 to 16 (≈ 4.22 to 33.8 µM) | > 64 | 16 to 64 (≈ 33.8 to 135 µM) | 2 to 16 (≈ 4.22 to 33.8 µM) | > 64 | 16 to 64 (≈ 33.8 to 135 µM) | 16 to 64 (≈ 33.8 to 135 µM)
O=C(NC(C(=O)NO)C1CCNC1)c1ccc(C#Cc2ccc(CN3CCOCC3)cc2)cc1 (stereo not shown) [Example 64-7, N-(hydroxycarbamoyl-pyrrolidin-3-yl-methyl)-4-(4-morpholin-4-ylmethyl-phenylethynyl)-benzamide] |  |  |  |  |  |  | A (MIC's of 2.0 μg/mL or less = A) |  | < 2 | 2 to 16 (≈ 4.32 to 34.6 µM) | 2 to 16 (≈ 4.32 to 34.6 µM) | < 2 | > 64 | 16 to 64 (≈ 34.6 to 138 µM) | 16 to 64 (≈ 34.6 to 138 µM)
O=C(N[C@H](C(=O)NO)C1CCNCC1)c1ccc(C#Cc2ccc(CN3CCOCC3)cc2)cc1 [Example 65-6, N—((S)-hydroxycarbamoyl-piperidin-4-yl-methyl)-4-(4-morpholin-4-ylmethyl-phenylethynyl)-benzamide] |  |  |  |  |  |  | A (MIC's of 2.0 μg/mL or less = A) |  | 2 to 16 (≈ 4.2 to 33.6 µM) | 16 to 64 (≈ 33.6 to 134 µM) | 16 to 64 (≈ 33.6 to 134 µM) | 2 to 16 (≈ 4.2 to 33.6 µM) | > 64 | > 64 | 16 to 64 (≈ 33.6 to 134 µM)
O=C(N[C@H](C(=O)NO)c1ccccc1)c1ccc(C#Cc2ccc(CN3CCOCC3)cc2)cc1 [Example 66-5, N—((S)-hydroxycarbamoyl-phenyl-methyl)-4-(4-morpholin-4-ylmethyl-phenylethynyl)-benzamide] |  |  |  |  |  |  | A (MIC's of 2.0 μg/mL or less = A) |  | < 2 | 2 to 16 (≈ 4.26 to 34.1 µM) | < 2 | < 2 | > 64 | 2 to 16 (≈ 4.26 to 34.1 µM) | 2 to 16 (≈ 4.26 to 34.1 µM)
CC(C)(O)[C@H](NC(=O)c1ccc(C#CC#Cc2cccnc2)cc1)C(=O)NO [Example 88-5] |  |  |  |  |  |  |  |  | < 2 | 2 to 16 (≈ 5.3 to 42.4 µM) | < 2 | < 2 | 16 to 64 (≈ 42.4 to 170 µM) | < 2 | < 2
C[C@@H](N)[C@H](NC(=O)c1ccc(CCc2ccc(CN3CCOCC3)cc2)cc1)C(=O)NO [Example 137-1] | A (MIC's of 2.0 μg/mL or less = A) | B (MIC's of greater than 2.0 μg/mL to 16.0 μg/mL = B) | A (MIC's of 2.0 μg/mL or less = A) | A (MIC's of 2.0 μg/mL or less = A) | D (MIC's of greater than 64.0 μg/mL = D) | B (MIC's of greater than 2.0 μg/mL to 16.0 μg/mL = B) |  | D (MIC's of greater than 64.0 μg/mL = D) |  |  |  |  |  |  | 
